Measured values taken from patent US20220331290A1, “PHARMACEUTICAL COMPOSITION FOR PREVENTING OR TREATING SARCOPENIA, CONTAINING UNNATURAL AMINO ACID” (MYO-TEC-SCI, priority 2019, published 2022).

Assays:
myostatin promoter = assay: Myostatin promoter activity, dual luciferase assay in C2C12 cells transfected with pGL4.15-MSTN; type: cell-based, mouse; settings: for myostatin promoter activity reduced by: 1 mM, C2C12 cells, medium without L-leucine, after one day; for promoter activity of myostatin: C2C12, medium without L-leucine
Description: After seeding 1×10^5 cells of mouse skeletal muscle cells C2C12 (ATCC, US) in a 12-well culture plate, on the next day, pGL4.15 empty vector and pGL4.15-MSTN vector containing myostatin promoter were transfected using Lipofectamine 2000 for 4 hours. After 4 hours, the complete medium (0.8 mM L-leucine) and the medium without L-leucine were treated with D-leucine or DL-leucine at concentrations of 0.001 mM, 0.01 mM, 0.1 mM, and 1 mM, respectively. After one day, a dual luciferase assay kit (Promega Inc.) was used to measure the promoter activity of myostatin.
In the same manner as the experiment to examine the inhibitory effect of a myostatin promoter activity by D-leucine or DL-leucine, D-alanine was treated at concentrations of 0.01 mM, 0.1 mM, 1 mM, and 10 mM in a medium without L-leucine, and a dual luciferase assay kit (Promega Inc.) was used to measure the promoter activity of myostatin.
In the same manner as in the experiment to examine the inhibitory effect of a myostatin promoter activity by D-leucine or DL-leucine, and D-alanine, D-proline was treated at concentrations of 0.001 mM, 0.01 mM, 0.1 mM, and 1 mM in a medium without L-leucine, and a dual luciferase assay kit (Promega Inc.) was used to measure the promoter activity of myostatin.
In the same manner as the myostatin promoter activity experimental method performed in Example 1 above, D-phenylalanine (0.001-0.1 mM), D-serine (0.001-0.1 mM), D-tyrosine (0.0001-0.01 mM), D-asparagine monohydrate (0.001-0.1 mM), D-aspartic acid (0.0001-0.01 mM), D-methionine (0.001-0.1 mM), D-cysteine hydrochloride monohydrate (0.001-0.1 mM), D-glutamic acid (0.0001-0.01 mM), D-arginine (0.001-0.1 mM), and D-tryptophan (0.001-0.1 mM) were treated, respectively. The myostatin mRNA expression level was identified using qRT-PCR, and the myostatin mRNA expression value was corrected using the expression value of beta-actin.

myostatin mRNA = assay: Myostatin mRNA expression by qRT-PCR in C2C12 cells, corrected with beta-actin; type: cell-based, mouse; settings: C2C12, medium without L-leucine
Description: After seeding mouse skeletal muscle cells C2C12 (ATCC, US) 3×10^5 cells in a 6-well culture plate, on the next day, D-leucine was treated at concentrations of 0.01 mM, 0.1 mM, and 1 mM in a complete medium (0.8 mM L-leucine) and a medium without L-leucine. […]

## CC(C)C[C@@H](N)C(=O)O [D-leucine]
Myostatin promoter
  myostatin promoter activity reduced by: 54%
Myostatin mRNA; D-leucine 0.01, 0.1 and 1 mM, after one day
  expression of myostatin mRNA: decreased in a dose-dependent manner

## O=C(O)[C@H]1CCCN1 [D-proline]
Myostatin promoter; D-proline at 0.001 mM or more (0.001-1 mM tested), 24 hours (FIG. 8)
  promoter activity of myostatin: decreased
Myostatin mRNA; D-proline at 0.1 mM or more (0.1 and 1 mM tested), 24 hours (FIG. 9)
  mRNA expression level of myostatin: decreased

## CC(C)CC(N)C(=O)O (racemic) [DL-leucine]
Myostatin promoter
  myostatin promoter activity reduced by: 41%

## C[C@@H](N)C(=O)O [D-alanine]
Myostatin promoter; D-alanine at 0.01 mM or more (0.01-10 mM tested), 12 hours (FIG. 6)
  promoter activity of myostatin: decreased
Myostatin mRNA; D-alanine at 0.001 mM or more (0.001-1 mM tested), 12 hours (FIG. 7)
  mRNA expression level of myostatin: decreased
